Values after ≈ are worked out from the molar mass of the structure shown.
Columns and labels:
[1] = test system: B. subtilis (WB800N strain); experiment: Bacterial growth inhibition assay, B. subtilis; format: cell-based, Bacillus subtilis; details: for inhibition at 100 µM: Bacillus subtilis, 8 h, read-out: Growth Inhibition at 100 μM (8 h) B. subtilis
Excerpt: (§1) To avoid the characterization of hit compounds lacking antibacterial activity, we subsequently tested the ability of the 18 ELISA-validated compounds to inhibit bacterial growth, using the previously identified indol-3-yl-urea derivative 4 as a reference. Two nonpathogenic bacteria were employed for this assay: the gram-positive B. subtilis (WB800N strain) and the gram-negative E. coli (DH10T1R strain). […] The remaining twelve compounds might have been unable to cross the bacterial membrane or were modified and/or extruded from the cell. […] This additional assay, which was conducted on a wild-type (W303) rather than on the hyperpermeable Δerg6 strain, is not part of our streamlined antibiotic discovery workflow and was only aimed at verifying the cytotoxicity prediction reliability of yBRET.
(§2) Growth inhibition tests and minimum inhibitory concentration (MIC) assay on the gram-positive B. subtilis WB800N strain (nprE aprE epr bpr mpr::ble nprB::bsr Δvpr wprA::hyg cm::neo; NeoR) (MoBiTec GmbH, Lotzestraße, Göttingen, Germany) and on the gram-negative nonpathogenic E. coli DH10 T1R strain (F-mcrA Δ(mrr-hsdRMS-mcrBC) Φ80lacZ ΔM15 ΔlacX74 recA1 endA1 araD139Δ(ara, leu)7697 galU galK λ-rpsL nupG) (Invitrogen, Waltham, MA, USA) were performed as described in Sartini et al..
(§3) For growth inhibition assays, bacteria were grown to exponential phase (OD600 = 0.5–0.6) and then diluted 100-fold with LB. PMBN (2 μg/mL) for E. coli was added at this stage. Yeast strain W303-1A (leu2-3,112 trp1-1 can1-100 ura3-1 ade2-1 his3-11,15) was grown at 30 °C in YPD to an OD600 of 0.5. The growth of the bacterial (or yeast) cells was monitored for 8 h in the presence of the candidate compounds dissolved in DMSO (final concentration of 5%) or an equivalent amount of DMSO as a negative control (“vehicle”). Growth inhibition assays were conducted in triplicate in 96-well plates (Microtest Plate 96 Well, F, flat base, Sarstedt, Nümbrecht, North Rhine-Westphalia, Germany) by monitoring cell growth (OD600) every 30 min with a microplate reader (TriStar^2 LB 942; Berthold Technologies, Bad Wildbad, Baden-Württemberg, Germany) for bacteria and every 1 h for yeast.

E. coli (DH10T1R strain) = experiment: Bacterial growth inhibition assay, E. coli; format: cell-based, Escherichia coli; details: for inhibition at 100 µM: 8 h, in the presence of PMBN (2 μg/mL)
Excerpt: as §1, §2, §3

[2] = test system: Saccharomyces cerevisiae (W303); experiment: Yeast growth inhibition assay; format: cell-based; details: wild-type W303
Excerpt: as §1, §3

B. subtilis WB800N = experiment: MIC assay, B. subtilis; format: cell-based, Bacillus subtilis; details: for MIC: Bacillus subtilis, WB800N
Method: as §2
(§4) Antimicrobial activity was determined by means of the minimum inhibitory concentration (MIC) assay, according to the Clinical & Laboratory Standards Institute (CLSI) guidelines described in ([37]). The assays were performed in 96-well microplates in 20% MH broth in PBS. A 2.5 × 10^5 CFU/mL medium-phase bacterial suspension in 20% MH broth was used and the microplates were incubated at 37 °C for 24 h. […] The results were derived from at least three independent experiments conducted in duplicate.

E. coli DH10T1R = experiment: MIC assay, E. coli; format: cell-based, Escherichia coli; details: in the presence of PMBN (2 μg/mL)
Method: as §2, §4

[3] = biological target: T1, β′–σ^70 PPI (GST-β′ aa 1–334 / His-tagged σ^70) (Escherichia coli, UniProt P0A8T7); experiment: Competitive ELISA of β′–σ^70 interaction; format: binding, E. coli; details: for IC50: read-out: Binding Inhibition IC50 ± SD; for inhibition at 100 µM: fixed concentration of 100 μM, read-out: β′–σ70 binding inhibition, ELISA 100 μM (percentage inhibition ± SD)
T1 construct: 50 nM GST-β′ (aa 1–334); made in house; host or cells: bacterial expression (pET28-b / pGEX4-T3 vectors)
T1 sequence (P0A8T7 1-334): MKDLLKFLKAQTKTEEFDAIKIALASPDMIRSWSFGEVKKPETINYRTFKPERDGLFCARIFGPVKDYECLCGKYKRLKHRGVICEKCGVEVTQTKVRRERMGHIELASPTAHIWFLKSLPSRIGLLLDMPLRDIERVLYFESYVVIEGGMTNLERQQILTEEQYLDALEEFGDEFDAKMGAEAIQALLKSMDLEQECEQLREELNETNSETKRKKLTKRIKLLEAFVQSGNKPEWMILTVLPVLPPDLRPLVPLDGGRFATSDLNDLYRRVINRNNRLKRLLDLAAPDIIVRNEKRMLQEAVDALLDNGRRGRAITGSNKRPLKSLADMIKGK
Method: In this in vitro set-up, individual candidate molecules (each at 100 µM concentration) were incubated with β’ before the addition of σ^70 and assessment of interaction reconstitution with an antibody directed against the σ^70 fusion tag. Eighteen of the 28 yBRET-positive compounds were thus confirmed as true inhibitors of the β’–σ^70 PPI (i.e., they inhibited the interaction by at least 50%); their structures and percentage inhibition values are reported in Table S1.
The production of recombinant proteins, the standard ELISA, and the “reverse” ELISA were performed following the protocols described in Sartini et al.. The full-length sequence coding for E. coli σ^70 was cloned into a modified pET28-b in-frame with an N-terminal 6xHis tag-sequence and was expressed in LB medium for 3 h at 30 °C following addition of 1 mM isopropyl-β-D-thiogalactopyranoside (IPTG).
The RNAP β’ 1–334 aa. coding sequence was cloned into a modified pGEX4-T3 expression vector (Amersham Biosciences, Amersham, Buckinghamshire, England) and was expressed for 24 h at 20 °C under auto-induction conditions (Auto Induction Medium, AIM-LB broth base; ForMedium™, Swaffham, Norfolk, England). Due to the failure of affinity purification on a glutathione-Sepharose column, the unfractionated whole cell supernatant was used directly as a GST-tagged source for ELISA.
For the standard ELISA, His-tagged- σ^70 was diluted to 250 nM with PBS and 100 μL of the resulting solution was added to the wells of SpectraPlate-96 HB microtitre plates (PerkinElmer, Waltham, MA, USA). After an overnight incubation at 4 °C, the wells were washed with PBS and blocked at room temperature for 2 h with 400 μL of 1% (w/v) BSA dissolved in PBS. Subsequently, 100 μL of supernatant diluted in PBS containing 50 nM GST-β′ (aa 1–334) was incubated for 10 min at 37 °C with 2.5 μL of each compound dissolved in DMSO at different concentrations (or with 2.5 μL of DMSO). The addition first of the polyclonal rabbit anti-GST primary antibody (1:2000 in PBS) (Abcam, Cambridge, Cambridgeshire, England) and after incubation, of the horseradish peroxidase-conjugated goat anti-rabbit secondary antibody diluted 1:20,000 in PBS (Invitrogen™ by Life Technologies™, Carlsbad, CA, USA) allowed the detection of the interaction using the substrate for 2,2’-Azino-bis (3-Ethylbenzthiazoline-6-Sulphonic Acid) peroxidase (ABTS; SeraCare Life Sciences, Milford, MA, USA). The signal resulting from the oxidation of ABTS was determined by measuring the absorbance at 415 nm with a microplate reader (iMark™ Microplate Absorbance Reader; Bio-Rad, Hercules, CA, USA).

[4] = biological target: T2, E. coli RNAPc with recombinant σ^70 (holoenzyme) (Escherichia coli, UniProt P0A8T7); experiment: Fluorescence-detected single-round in vitro transcription assay; format: biochemical; details: fluorescence-based assay
T2 construct: purchased New England BioLabs
T2 sequence (P0A8T7 whole entry): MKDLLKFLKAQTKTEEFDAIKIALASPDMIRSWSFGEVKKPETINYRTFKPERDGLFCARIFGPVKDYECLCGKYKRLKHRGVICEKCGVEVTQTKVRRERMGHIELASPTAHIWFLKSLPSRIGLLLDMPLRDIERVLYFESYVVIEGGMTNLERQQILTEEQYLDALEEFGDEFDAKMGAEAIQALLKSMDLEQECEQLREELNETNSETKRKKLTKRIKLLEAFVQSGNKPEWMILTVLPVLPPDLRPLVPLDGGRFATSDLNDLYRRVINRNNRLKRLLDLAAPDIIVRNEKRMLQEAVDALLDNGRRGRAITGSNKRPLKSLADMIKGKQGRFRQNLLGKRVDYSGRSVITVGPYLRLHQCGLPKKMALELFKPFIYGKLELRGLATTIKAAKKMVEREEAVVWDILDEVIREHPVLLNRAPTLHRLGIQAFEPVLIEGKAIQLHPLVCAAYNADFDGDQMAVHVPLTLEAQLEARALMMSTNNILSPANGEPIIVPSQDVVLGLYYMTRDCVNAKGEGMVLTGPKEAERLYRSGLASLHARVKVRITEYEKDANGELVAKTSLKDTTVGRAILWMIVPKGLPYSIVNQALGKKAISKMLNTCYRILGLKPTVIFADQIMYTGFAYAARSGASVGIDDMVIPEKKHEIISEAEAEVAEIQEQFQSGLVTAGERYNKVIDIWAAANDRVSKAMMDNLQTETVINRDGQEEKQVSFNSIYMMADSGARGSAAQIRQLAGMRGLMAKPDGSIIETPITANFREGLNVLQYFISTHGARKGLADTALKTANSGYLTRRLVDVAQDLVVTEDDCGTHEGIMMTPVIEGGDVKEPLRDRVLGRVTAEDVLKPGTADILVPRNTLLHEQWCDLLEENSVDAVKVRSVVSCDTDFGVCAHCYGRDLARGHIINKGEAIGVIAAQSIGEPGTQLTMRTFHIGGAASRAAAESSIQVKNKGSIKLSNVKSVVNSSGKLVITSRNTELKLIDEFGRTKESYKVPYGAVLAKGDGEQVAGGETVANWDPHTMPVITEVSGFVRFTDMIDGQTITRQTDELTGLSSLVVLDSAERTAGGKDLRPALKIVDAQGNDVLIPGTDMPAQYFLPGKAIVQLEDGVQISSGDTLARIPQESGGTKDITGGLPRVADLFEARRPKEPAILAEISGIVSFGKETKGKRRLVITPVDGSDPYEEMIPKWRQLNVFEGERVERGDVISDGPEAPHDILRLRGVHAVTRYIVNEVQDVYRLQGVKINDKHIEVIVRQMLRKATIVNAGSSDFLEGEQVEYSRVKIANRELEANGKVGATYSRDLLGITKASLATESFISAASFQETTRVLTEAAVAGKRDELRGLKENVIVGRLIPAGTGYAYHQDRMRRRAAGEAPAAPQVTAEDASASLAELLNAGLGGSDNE
T2 sequence (P0A8V2 whole entry partner): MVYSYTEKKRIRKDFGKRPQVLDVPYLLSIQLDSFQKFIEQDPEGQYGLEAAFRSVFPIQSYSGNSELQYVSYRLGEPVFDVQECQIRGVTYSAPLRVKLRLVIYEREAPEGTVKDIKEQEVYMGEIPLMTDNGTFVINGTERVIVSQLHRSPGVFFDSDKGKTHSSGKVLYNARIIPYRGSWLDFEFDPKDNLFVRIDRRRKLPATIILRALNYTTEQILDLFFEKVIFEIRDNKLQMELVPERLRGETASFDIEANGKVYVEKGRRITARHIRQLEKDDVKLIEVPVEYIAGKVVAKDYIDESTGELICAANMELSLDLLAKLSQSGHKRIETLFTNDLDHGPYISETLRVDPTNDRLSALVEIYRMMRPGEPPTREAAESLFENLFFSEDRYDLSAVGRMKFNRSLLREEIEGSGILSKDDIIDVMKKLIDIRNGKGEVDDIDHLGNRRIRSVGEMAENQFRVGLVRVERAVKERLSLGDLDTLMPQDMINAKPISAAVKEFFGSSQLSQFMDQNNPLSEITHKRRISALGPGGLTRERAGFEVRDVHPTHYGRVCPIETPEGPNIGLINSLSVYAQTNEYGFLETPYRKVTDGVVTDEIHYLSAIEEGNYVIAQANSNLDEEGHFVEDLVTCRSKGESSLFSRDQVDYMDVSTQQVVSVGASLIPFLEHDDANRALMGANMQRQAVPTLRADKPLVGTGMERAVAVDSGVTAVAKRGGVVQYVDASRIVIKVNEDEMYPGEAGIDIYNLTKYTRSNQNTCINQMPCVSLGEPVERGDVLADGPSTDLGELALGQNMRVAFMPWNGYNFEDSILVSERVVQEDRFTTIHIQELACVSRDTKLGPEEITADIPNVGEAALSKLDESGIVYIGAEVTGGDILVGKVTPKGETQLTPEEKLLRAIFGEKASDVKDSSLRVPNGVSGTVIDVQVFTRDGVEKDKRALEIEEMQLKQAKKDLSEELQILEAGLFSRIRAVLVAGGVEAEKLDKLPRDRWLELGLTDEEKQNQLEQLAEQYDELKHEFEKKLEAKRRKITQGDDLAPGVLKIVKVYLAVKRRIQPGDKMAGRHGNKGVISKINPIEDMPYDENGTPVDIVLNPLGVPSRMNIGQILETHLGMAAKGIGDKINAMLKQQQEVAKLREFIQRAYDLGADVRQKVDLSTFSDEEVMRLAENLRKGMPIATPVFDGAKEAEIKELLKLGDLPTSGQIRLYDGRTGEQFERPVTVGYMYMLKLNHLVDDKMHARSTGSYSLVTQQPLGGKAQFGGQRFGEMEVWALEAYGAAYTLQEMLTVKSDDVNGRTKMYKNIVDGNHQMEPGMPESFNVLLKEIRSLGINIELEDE
T2 sequence (P0A7Z4 whole entry partner): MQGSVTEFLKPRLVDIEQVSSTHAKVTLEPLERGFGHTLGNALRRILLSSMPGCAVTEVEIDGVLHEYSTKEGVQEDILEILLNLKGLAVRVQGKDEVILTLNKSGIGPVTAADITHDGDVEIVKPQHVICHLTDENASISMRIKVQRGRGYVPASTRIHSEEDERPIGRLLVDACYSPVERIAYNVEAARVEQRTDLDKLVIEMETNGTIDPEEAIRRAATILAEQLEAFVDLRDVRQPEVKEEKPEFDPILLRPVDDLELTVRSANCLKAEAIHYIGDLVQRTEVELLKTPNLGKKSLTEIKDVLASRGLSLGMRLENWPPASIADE
T2 sequence (P0A800 whole entry partner): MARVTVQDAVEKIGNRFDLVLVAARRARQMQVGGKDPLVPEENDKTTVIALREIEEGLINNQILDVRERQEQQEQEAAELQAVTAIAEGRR
Method: A single-round transcription assay was first performed at a fixed, 100 µM concentration.
A fluorescence-detected RNAP inhibition assay with the profluorescent substrate γ-[2′(2-benzothiazoyl)-6′-hydroxybenzothiazole)-ATP (γ-BBT-ATP, Jena Bioscience, Jena, Thuringia, Germany) was performed to verify the ability of the selected compounds to inhibit the specific transcription activity of bacterial RNA polymerase, using E. coli RNAPc (New England BioLabs, Ipswich, MA, USA) and recombinant His-tagged-σ^70 for holoenzyme reconstitution.
Two nM of a circular DNA template (pDSP) [38] were then added to a final volume of 7 µL and the resulting reaction mixture was incubated at 37 °C for 15 min. The pDSP template is a 6135 bp vector harboring two identical λpR promoters upstream of engineered, cytosine-lacking (C-less) DNA regions. When CTP is omitted from the reaction mixture, transcription reinitiation is prevented, and this allows for the single-round transcription of 24 nt and 70 nt long RNAs. […]
Ten µL of the reaction was transferred to a black 384-well plate (PE384fw_ProxiPlate) and fluorescence emission was read with Spark 10M, Tecan (Männedorf, canton of Zürich, Switzerland) (excitation wavelength 422 nm; emission wavelength 590 nm).

β′ subunit (RNAP) = test system: β′ subunit (RNAP); parameters: method as in PMID 26764017, PMID 23751807; details: cited from earlier work

SMILES	B. subtilis growth inhibition over time ([1]; 50 µM)	Duration of antibacterial activity, B. subtilis ([1]; 50 µM)	inhibition at 100 µM [1]	B. subtilis growth inhibition over time ([1]; only at 100 µM)	inhibition at 100 µM (E. coli (DH10T1R strain); Escherichia coli)	Growth Inhibition at 100 μM (8 h) S. cerevisiae [2]	MIC (B. subtilis WB800N)	MIC E. coli (E. coli DH10T1R)	Fold less potent than reference compound 4 (binding inhibition IC50) ([3]; dose–response ELISA)	IC50 ([3]; dose–response ELISA)	inhibition at 100 µM [3]	IC50 [4]	B. subtilis growth inhibition ([1]; concentrations ≤ 100 µM)	E. coli growth inhibition (E. coli (DH10T1R strain); concentrations ≤ 100 µM)	Concentration interfering with in vitro transcription initiation (β′ subunit (RNAP))	Duration of antibacterial activity, E. coli (E. coli (DH10T1R strain); 50 µM)	E. coli growth inhibition over time (E. coli (DH10T1R strain); 50 µM)	inhibition at 10 µM (E. coli (DH10T1R strain); Escherichia coli, 10 µM, 8 h observation, with PMBN, read-out: E. coli growth inhibition at lowest concentration)	MIC B. subtilis (B. subtilis WB800N)
O=C(CSc1nc2ccccc2[nH]1)c1ccc2[nH]c3ncc(Cl)cc3c2c1 [Compound 19]	almost completely inhibited	4 h	37%	significantly inhibited	0%	0%	100 µM (≈ 39.3 µg/mL)	>100 µM	5 fold	40 ± 4.2 µM	94 ± 1%	25.7 ± 1.85 µM							
COc1ccc(-c2ccc(-c3oc4cc(OC(C)=O)ccc4c3OC(C)=O)cc2)cc1OC [Compound 9]			24%		24%	0%	> 100 µM	>100 µM		13.9 ± 1.86 µM	100%	71 ± 2.46 µM	failed to exert any appreciable inhibitory activity	failed to exert any appreciable inhibitory activity					
COc1cc(OC)c2c(-c3ccc(Cl)cc3)c[nH]c2c1C(=O)NNC(=O)c1c(OC)cc(OC)c2c(-c3ccc(Cl)cc3)c[nH]c12 [GKL003]															nanomolar concentrations				
N#Cc1cc2cnccc2c2[nH]c3ncc(F)cc3c12 [Compound 7]			13%		66%	7%	> 100 µM	0.78 µM		8.56 ± 1.82 µM	86 ± 9%					4 h	almost completely inhibited	38%	did not inhibit B. subtilis growth
